{"source": "patent US6930118B2", "about": "“3-Oxadiazol-5-yl-1-aminoalkyl-1h-indole derivatives” (Amrad Operations Pty. Ltd., priority 2001, dated 2005)", "test_system": "Sprague-Dawley rats", "experiment": "Neuropathic pain testing: L5/L6 spinal nerve ligation, tactile allodynia with von Frey hairs", "type": "in vivo", "conditions": "intraperitoneal injection, propylene glycol vehicle, rat", "excerpt": "Production of a unilateral hind limb neuropathy in male Sprague-Dawley rats was achieved using the technique of L5 and L6 spinal nerve ligation, according to the method of Kim and Chung (1992). Animals were given one week to recover from surgery prior to testing for the development of […] pain.\nThe testing procedure involved the determination of tactile allodynia using von Frey hairs, which were applied sequentially to the plantar surface of the rat paw starting with 2 g of force and proceeding upwards to a maximum of 15.1 g of force or downwards to a minimum of 0.4 g force. The 15.1 g force was used to define the maximum possible effect (MPE) for this test of neuropathic pain. Once paw withdrawal occurred, the 50% withdrawal threshold was determined using the “up-down” method as published by Dixon (1980). Both hind paws were tested. Response to therapy as measured by tactile allodynia threshold was calculated using the percentage maximum possible effect (% MPE) according to the following equation: % MPE=100×([Measured value]−[Pre-treatment value])/([MPE]−[Pre-treatment value]).\nDrugs were dissolved in a propylene glycol vehicle and administered via intraperitoneal injection."}
{"smiles": "c1ccc(Cc2noc(-c3cn(CCN4CCCC4)c4ccccc34)n2)cc1", "note": "[Compound 1, 3-(3-Benzyl-[1,2,4]-oxadiazol-5-yl)-1-[2-(pyrrolidin-1-yl)ethyl]-1H-indole]", "values": [{"measurement": "antinociceptive effect in model of neuropathic pain", "result": "significant antinociceptive effect"}]}
